Data as given in patent US8449898B2 (priority 2007, dated 2013).
Like-named read-outs stand apart in the source and are kept apart here.

Legend:
[1] = tested on: Phytophthora infestans (the causal agent of tomato late blight); experiment: whole plant or invertebrate; format: in vivo
[2] = tested on: Pseudoperonospora cubensis (the causal agent of cucumber downy mildew); experiment: Test B: cucumber downy mildew, preventive spray on cucumber seedlings; format: in vivo
[3] = Phytophthora infestans, read-out: TLB Obsd (observed effect, tomato late blight), component (b) alone, 2 ppm
[4] = Phytophthora infestans, read-out: TLB Obsd (observed effect, tomato late blight), component (b) alone, 10 ppm
[5] = Phytophthora infestans, read-out: TLB Obsd (observed effect, tomato late blight), component (b) alone, 40 ppm
[6] = Pseudoperonospora cubensis, component (b) alone, 2 ppm, read-out: CDM Obsd (observed effect, cucumber downy mildew)
[7] = Pseudoperonospora cubensis, component (b) alone, 10 ppm, read-out: CDM Obsd (observed effect, cucumber downy mildew)
[8] = Pseudoperonospora cubensis, component (b) alone, 40 ppm, read-out: CDM Obsd (observed effect, cucumber downy mildew)
[9] = Table D, component (b) alone at 10 ppm
[10] = Table D, component (b) alone at 40 ppm
[11] = Table D, component (b) alone at 200 ppm
[12] = Table D, component (b) alone at 1000 ppm
[13] = Table D, component (b) alone at 2000 ppm
[14] = component (b) alone 10 ppm (Compound 1 0 ppm)

With `Cc1cc(C(F)(F)F)nn1CC(=O)N1CCC(c2nc(C3=NOC4c5ccccc5CCC34)cs2)CC1` (stereo not shown) the melting point was 162 to 165 °C.

`Cc1cc(C(F)(F)F)nn1CC(=O)N1CCC(c2nc(C3=NOC(C)(c4ccccc4)C3)cs2)CC1` (stereo not shown) showed a melting point of 97 to 100 °C.

`O=C(Cn1nc(C(F)(F)F)cc1C(F)(F)F)N1CCC(c2nc(C3=NOC(c4ccccc4)C3)cs2)CC1` (stereo not shown) showed a melting point of 130 to 133 °C.

In the case of `CCc1cc(C(F)(F)F)nn1CC(=O)N1CCC(c2nc(C3=NOC(c4ccccc4)C3)cs2)CC1` (stereo not shown), the melting point was 128 to 133 °C.

For `CCNC(=O)NC(=O)/C(C#N)=N/OC` [cymoxanil], the pest or weed control at 0.4 ppm ([1]; Phytophthora infestans, read-out: TLB Obsd (disease control rating), Table A, component (b) alone 0.4 ppm) was 9%, the pest or weed control at 2 ppm ([1]; Phytophthora infestans, read-out: TLB Obsd (disease control rating), Table A, component (b) alone 2 ppm) was 76% and the pest or weed control at 10 ppm ([1]; Phytophthora infestans, read-out: TLB Obsd (disease control rating), Table A, component (b) alone 10 ppm) was 100%. It also gave a pest or weed control at 40 ppm ([1]; Phytophthora infestans, read-out: TLB Obsd (disease control rating), Table A, component (b) alone 40 ppm) of 100%, a pest or weed control at 200 ppm ([1]; Phytophthora infestans, read-out: TLB Obsd (disease control rating), Table A, component (b) alone 200 ppm) of 100% and a pest or weed control at 0.04 ppm ([1]; Phytophthora infestans, read-out: TLB Obsd (observed effect, tomato late blight), component (b) alone, 0.04 ppm) of 44%. For the same molecule, the pest or weed control at 2 ppm [1, 3] was 46%, the pest or weed control at 10 ppm [1, 4] was 100% and the pest or weed control at 40 ppm [1, 5] was 100%. For the same molecule, the pest or weed control at 200 ppm ([1]; Phytophthora infestans, read-out: TLB Obsd (observed effect, tomato late blight), component (b) alone, 200 ppm) was 100%, the pest or weed control at 0.4 ppm ([2]; Pseudoperonospora cubensis, Table A, component (b) alone 0.4 ppm, read-out: CDM Obsd (disease control rating)) was 47% and the pest or weed control at 2 ppm ([2]; Pseudoperonospora cubensis, Table A, component (b) alone 2 ppm, read-out: CDM Obsd (disease control rating)) was 47%. For the same molecule, the pest or weed control at 10 ppm ([2]; Pseudoperonospora cubensis, Table A, component (b) alone 10 ppm, read-out: CDM Obsd (disease control rating)) was 47%, the pest or weed control at 40 ppm ([2]; Pseudoperonospora cubensis, Table A, component (b) alone 40 ppm, read-out: CDM Obsd (disease control rating)) was 47% and the pest or weed control at 200 ppm ([2]; Pseudoperonospora cubensis, Table A, component (b) alone 200 ppm, read-out: CDM Obsd (disease control rating)) was 47%. It also gave a pest or weed control at 0.4 ppm ([2]; Pseudoperonospora cubensis, Table G, component (b) alone at 0.4 ppm, read-out: CDM Obsd) of 26%, a pest or weed control at 2 ppm ([2]; Pseudoperonospora cubensis, Table G, component (b) alone at 2 ppm, read-out: CDM Obsd) of 26% and a pest or weed control at 10 ppm ([2]; Pseudoperonospora cubensis, Table G, component (b) alone at 10 ppm, read-out: CDM Obsd) of 26%. The pest or weed control at 40 ppm ([2]; Pseudoperonospora cubensis, Table G, component (b) alone at 40 ppm, read-out: CDM Obsd) was 26%, the pest or weed control at 200 ppm ([2]; Pseudoperonospora cubensis, Table G, component (b) alone at 200 ppm, read-out: CDM Obsd) was 26% and the pest or weed control at 0.04 ppm ([2]; Pseudoperonospora cubensis, component (b) alone, 0.04 ppm, read-out: CDM Obsd (observed effect, cucumber downy mildew)) was 15%. It also gave a pest or weed control at 2 ppm [2, 6] of 0%, a pest or weed control at 10 ppm [2, 7] of 0% and a pest or weed control at 40 ppm [2, 8] of 0%. For the same molecule, the pest or weed control at 200 ppm ([2]; Pseudoperonospora cubensis, component (b) alone, 200 ppm, read-out: CDM Obsd (observed effect, cucumber downy mildew)) was 21%.

Molecule `COc1ccc(C2CC(c3csc(C4CCN(C(=O)Cn5nc(C(F)(F)F)cc5C)CC4)n3)=NO2)cc1` (stereo not shown) has a melting point of 119 to 124 °C.

With `CCO[PH](=O)O` [fosetyl-aluminum] the “TLB Obsd” value [1, 9] was 0%, the “TLB Obsd” value [1, 10] was 20% and the “TLB Obsd” value [1, 11] was 65%. The “TLB Obsd” value [1, 12] was 97%, the “TLB Obsd” value [1, 13] was 100% and the “TLB Obsd (observed effect, tomato late blight)” value ([1]; component (b) alone, 10 ppm) was 0. The “TLB Obsd (observed effect, tomato late blight)” value ([1]; component (b) alone, 40 ppm) was 0, the “TLB Obsd (observed effect, tomato late blight)” value ([1]; component (b) alone, 200 ppm) was 50 and the “TLB Obsd (observed effect, tomato late blight)” value ([1]; component (b) alone, 1000 ppm) was 99. The “TLB Obsd (observed effect, tomato late blight)” value ([1]; component (b) alone, 2000 ppm) was 100, the “CDM Obsd” value [2, 9] was 47% and the “CDM Obsd” value [2, 10] was 47%. The “CDM Obsd” value [2, 11] was 47%, the “CDM Obsd” value [2, 12] was 98% and the “CDM Obsd” value [2, 13] was 100%. For the same molecule, the “CDM Obsd” value [2, 14] was 47%, the “CDM Obsd” value ([2]; component (b) alone 40 ppm (Compound 1 0 ppm)) was 47% and the “CDM Obsd” value ([2]; component (b) alone 200 ppm (Compound 1 0 ppm)) was 63%. For the same molecule, the “CDM Obsd” value ([2]; component (b) alone 1000 ppm (Compound 1 0 ppm)) was 98%, the “CDM Obsd” value ([2]; component (b) alone 2000 ppm (Compound 1 0 ppm)) was 100% and the “CDM Obsd (observed effect, cucumber downy mildew)” value ([2]; component (b) alone, 10 ppm) was 0. The “CDM Obsd (observed effect, cucumber downy mildew)” value ([2]; component (b) alone, 40 ppm) was 0, the “CDM Obsd (observed effect, cucumber downy mildew)” value ([2]; component (b) alone, 200 ppm) was 0 and the “CDM Obsd (observed effect, cucumber downy mildew)” value ([2]; component (b) alone, 1000 ppm) was 68. The “CDM Obsd (observed effect, cucumber downy mildew)” value ([2]; component (b) alone, 2000 ppm) was 73.

`N#Cc1c(Cl)c(Cl)c(Cl)c(C#N)c1Cl` [chlorothalonil] showed a pest or weed control at 0.08 ppm ([1]; Phytophthora infestans, read-out: TLB Obsd (observed effect, tomato late blight), component (b) alone, 0.08 ppm) of 14%, a pest or weed control at 0.4 ppm ([1]; Phytophthora infestans, read-out: TLB Obsd (observed effect, tomato late blight), component (b) alone, 0.4 ppm) of 14% and a pest or weed control at 2 ppm [1, 3] of 21%. The pest or weed control at 10 ppm [1, 4] was 100%, the pest or weed control at 40 ppm [1, 5] was 100% and the pest or weed control at 0.016 ppm ([1]; Phytophthora infestans, read-out: TLB Obsd, Table E, component (b) alone at 0.016 ppm) was 31%. For the same molecule, the pest or weed control at 0.08 ppm ([1]; Phytophthora infestans, read-out: TLB Obsd, Table E, component (b) alone at 0.08 ppm) was 0%, the pest or weed control at 0.4 ppm ([1]; Phytophthora infestans, read-out: TLB Obsd, Table E, component (b) alone at 0.4 ppm) was 73% and the pest or weed control at 2 ppm ([1]; Phytophthora infestans, read-out: TLB Obsd, Table E, component (b) alone at 2 ppm) was 100%. It also gave a pest or weed control at 10 ppm ([1]; Phytophthora infestans, read-out: TLB Obsd, Table E, component (b) alone at 10 ppm) of 100%, a pest or weed control at 0.016 ppm ([2]; Pseudoperonospora cubensis, Table F, component (b) alone at 0.016 ppm, read-out: CDM Obsd) of 47% and a pest or weed control at 0.08 ppm ([2]; Pseudoperonospora cubensis, Table F, component (b) alone at 0.08 ppm, read-out: CDM Obsd) of 33%. It also gave a pest or weed control at 0.4 ppm ([2]; Pseudoperonospora cubensis, Table F, component (b) alone at 0.4 ppm, read-out: CDM Obsd) of 47%, a pest or weed control at 2 ppm ([2]; Pseudoperonospora cubensis, Table F, component (b) alone at 2 ppm, read-out: CDM Obsd) of 99% and a pest or weed control at 10 ppm ([2]; Pseudoperonospora cubensis, Table F, component (b) alone at 10 ppm, read-out: CDM Obsd) of 100%. For the same molecule, the pest or weed control at 0.08 ppm ([2]; Pseudoperonospora cubensis, component (b) alone, 0.08 ppm, read-out: CDM Obsd (observed effect, cucumber downy mildew)) was 0%, the pest or weed control at 0.4 ppm ([2]; Pseudoperonospora cubensis, component (b) alone, 0.4 ppm, read-out: CDM Obsd (observed effect, cucumber downy mildew)) was 0% and the pest or weed control at 2 ppm [2, 6] was 0%. The pest or weed control at 10 ppm [2, 7] was 70% and the pest or weed control at 40 ppm [2, 8] was 71%.

In the case of `CCNc1nc(CC)c(C(=O)NC(C#N)c2cccs2)s1` (stereo not shown) [ethaboxam], the “TLB Obsd” value ([1]; component (b) alone, 0.016 ppm) was 22%, the “TLB Obsd” value ([1]; component (b) alone, 0.08 ppm) was 15% and the “TLB Obsd” value ([1]; component (b) alone, 0.4 ppm) was 95%. For the same molecule, the “TLB Obsd” value ([1]; component (b) alone, 2 ppm) was 87%, the “TLB Obsd” value ([1]; component (b) alone, 10 ppm) was 100% and the “CDM Obsd” value ([2]; component (b) alone 0.016 ppm (Compound 1 0 ppm)) was 47%. The “CDM Obsd” value ([2]; component (b) alone 0.08 ppm (Compound 1 0 ppm)) was 47%, the “CDM Obsd” value ([2]; component (b) alone 0.4 ppm (Compound 1 0 ppm)) was 47% and the “CDM Obsd” value ([2]; component (b) alone 2 ppm (Compound 1 0 ppm)) was 82%. For the same molecule, the “CDM Obsd” value [2, 14] was 100%, the “CDM Obsd” value ([2]; component (b) alone, 0.016 ppm) was 0% and the “CDM Obsd” value ([2]; component (b) alone, 0.08 ppm) was 0%. The “CDM Obsd” value ([2]; component (b) alone, 0.4 ppm) was 41%, the “CDM Obsd” value ([2]; component (b) alone, 2 ppm) was 100% and the “CDM Obsd” value ([2]; component (b) alone, 10 ppm) was 100%.

For `CC(C)[C@H](NC(=O)O)C(=O)N[C@H](C)c1nc2ccc(F)cc2s1` [benthiavalicarb], the “TLB Obsd (observed effect, tomato late blight)” value ([1]; component (b) alone, 0.08 ppm) was 21, the “TLB Obsd (observed effect, tomato late blight)” value ([1]; component (b) alone, 0.4 ppm) was 82 and the “TLB Obsd (observed effect, tomato late blight)” value ([1]; component (b) alone, 2 ppm) was 100. The “TLB Obsd (observed effect, tomato late blight)” value ([1]; component (b) alone, 10 ppm) was 100, the “TLB Obsd (observed effect, tomato late blight)” value ([1]; component (b) alone, 40 ppm) was 100 and the “CDM Obsd (observed effect, cucumber downy mildew)” value ([2]; component (b) alone, 0.08 ppm) was 0. For the same molecule, the “CDM Obsd (observed effect, cucumber downy mildew)” value ([2]; component (b) alone, 0.4 ppm) was 75, the “CDM Obsd (observed effect, cucumber downy mildew)” value ([2]; component (b) alone, 2 ppm) was 100 and the “CDM Obsd (observed effect, cucumber downy mildew)” value ([2]; component (b) alone, 10 ppm) was 100. For the same molecule, the “CDM Obsd (observed effect, cucumber downy mildew)” value ([2]; component (b) alone, 40 ppm) was 100.
